{
  "source": "ChEMBL document CHEMBL4334449",
  "about": "“Jorunnamycin A from Xestospongia sp. Suppresses Epithelial to Mesenchymal Transition and Sensitizes Anoikis in Human Lung Cancer Cells” (J Nat Prod, 2019)",
  "key": {"NCI-H460 [1]": {"system": "NCI-H460", "assay": "Antiproliferative activity against human H460 cells under detachment conditions assessed as reduction in cell viability at 0.05 uM after 6 hrs by XTT assay", "assay_type": "functional, cell-based"}, "NCI-H460 [2]": {"system": "NCI-H460", "assay": "Induction of apoptosis in human H460 cells under detachment conditions assessed as viable cells at 0.5 uM after 24 hrs by Annexin V-FITC/propidium iodide staining-based flow cytometric analysis (reference value: 60.43%)", "assay_type": "functional"}, "NCI-H292 [3]": {"system": "NCI-H292", "assay": "Induction of apoptosis in human NCI-H292 cells under detachment conditions assessed as viable cells at 0.5 uM after 24 hrs by Annexin V-FITC/propidium iodide staining-based flow cytometric analysis (reference value: 40.55%)", "assay_type": "functional", "conditions": "NCI-H292, 24 h, read-out: Activity"}, "NCI-H23 [4]": {"system": "NCI-H23", "assay": "Inhibition of colony formation in human H23 cells under detachment conditions assessed as reduction in number of colonies at 0.1 to 0.5 uM after 14 days by microscopic method", "assay_type": "functional, cell-based"}, "NCI-H23 [5]": {"system": "NCI-H23", "assay": "Inhibition of epithelial-mesenchymal transition in human H23 cells harboring with p53 mutant under detachment conditions assessed as decrease in vimentin protein level 0.05 to 0.5 uM after 12 hrs by Western blot analysis", "assay_type": "functional, cell-based"}, "NCI-H23 [6]": {"system": "NCI-H23", "assay": "Inhibition of epithelial-mesenchymal transition in human H23 cells harboring with p53 mutant under detachment conditions assessed as decrease in snail protein level 0.05 to 0.5 uM after 12 hrs by Western blot analysis", "assay_type": "functional, cell-based"}, "NCI-H460 [7]": {"system": "NCI-H460", "assay": "Inhibition of colony formation in human H460 cells under detachment conditions assessed as reduction in size of colonies at 0.1 to 0.5 uM after 14 days by microscopic method", "assay_type": "functional, cell-based"}, "NCI-H460 [8]": {"system": "NCI-H460", "assay": "Induction of anoikis in human H460 cells under detachment conditions at 0.05 to 0.5 uM after 24 hrs by Hoechst 33342/propidium iodide staining based fluorescent microscopic method", "assay_type": "functional, cell-based"}, "NCI-H460 [9]": {"system": "NCI-H460", "assay": "Effect on total ERK protein level in human H460 cells under detachment conditions at 0.05 to 0.5 uM after 12 hrs by Western blot analysis", "assay_type": "ADME, cell-based", "conditions": "nci-h460, 12 h"}, "NCI-H23 [10]": {"system": "NCI-H23", "assay": "Induction of apoptosis in human H23 cells under detachment conditions assessed as early apoptotic cells at 0.5 uM after 24 hrs by Annexin V-FITC/propidium iodide staining-based flow cytometric analysis (reference value: 26.81%)", "assay_type": "functional"}, "NCI-H460 [11]": {"system": "NCI-H460", "assay": "Inhibition of epithelial-mesenchymal transition in human H460 cells under detachment conditions assessed as decrease in vimentin protein level 0.05 to 0.5 uM after 12 hrs by Western blot analysis", "assay_type": "functional, cell-based"}, "NCI-H460 [12]": {"system": "NCI-H460", "assay": "Induction of anoikis in human H460 cells under detachment conditions assessed as increase in Bax level at 0.05 to 0.5 uM after 12 hrs by Western blot analysis", "assay_type": "functional, cell-based"}, "[13]": {"target": "Serine/threonine-protein kinase AKT (Homo sapiens) (UniProt P31751+Q9Y243+P31749)", "sequence (P31749 whole entry, looked up)": "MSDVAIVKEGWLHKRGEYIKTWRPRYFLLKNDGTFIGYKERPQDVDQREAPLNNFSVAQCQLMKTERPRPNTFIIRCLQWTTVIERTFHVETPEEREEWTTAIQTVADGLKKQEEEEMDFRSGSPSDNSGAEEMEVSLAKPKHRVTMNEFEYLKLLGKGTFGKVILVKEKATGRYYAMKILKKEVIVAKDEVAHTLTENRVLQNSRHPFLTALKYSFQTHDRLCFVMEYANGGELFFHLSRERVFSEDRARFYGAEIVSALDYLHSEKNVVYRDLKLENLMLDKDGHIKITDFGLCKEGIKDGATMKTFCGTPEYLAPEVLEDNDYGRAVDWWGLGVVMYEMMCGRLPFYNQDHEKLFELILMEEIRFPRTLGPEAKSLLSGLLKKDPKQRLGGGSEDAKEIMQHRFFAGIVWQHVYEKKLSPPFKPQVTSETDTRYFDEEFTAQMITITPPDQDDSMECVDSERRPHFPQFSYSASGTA", "sequence (P31751 whole entry, looked up)": "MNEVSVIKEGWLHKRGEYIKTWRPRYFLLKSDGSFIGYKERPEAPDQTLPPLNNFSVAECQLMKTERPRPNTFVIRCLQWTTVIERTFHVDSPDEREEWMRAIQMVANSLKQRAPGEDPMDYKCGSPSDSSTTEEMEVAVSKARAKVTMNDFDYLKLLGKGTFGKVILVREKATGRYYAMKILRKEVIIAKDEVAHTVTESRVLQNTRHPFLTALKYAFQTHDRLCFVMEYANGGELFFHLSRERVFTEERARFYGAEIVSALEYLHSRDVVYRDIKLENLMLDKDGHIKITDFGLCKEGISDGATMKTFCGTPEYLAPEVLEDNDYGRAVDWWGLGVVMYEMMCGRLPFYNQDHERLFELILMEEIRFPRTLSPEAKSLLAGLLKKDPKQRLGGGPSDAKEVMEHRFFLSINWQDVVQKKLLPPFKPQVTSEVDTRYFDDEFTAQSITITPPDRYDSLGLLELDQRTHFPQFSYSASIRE", "sequence (Q9Y243 whole entry, looked up)": "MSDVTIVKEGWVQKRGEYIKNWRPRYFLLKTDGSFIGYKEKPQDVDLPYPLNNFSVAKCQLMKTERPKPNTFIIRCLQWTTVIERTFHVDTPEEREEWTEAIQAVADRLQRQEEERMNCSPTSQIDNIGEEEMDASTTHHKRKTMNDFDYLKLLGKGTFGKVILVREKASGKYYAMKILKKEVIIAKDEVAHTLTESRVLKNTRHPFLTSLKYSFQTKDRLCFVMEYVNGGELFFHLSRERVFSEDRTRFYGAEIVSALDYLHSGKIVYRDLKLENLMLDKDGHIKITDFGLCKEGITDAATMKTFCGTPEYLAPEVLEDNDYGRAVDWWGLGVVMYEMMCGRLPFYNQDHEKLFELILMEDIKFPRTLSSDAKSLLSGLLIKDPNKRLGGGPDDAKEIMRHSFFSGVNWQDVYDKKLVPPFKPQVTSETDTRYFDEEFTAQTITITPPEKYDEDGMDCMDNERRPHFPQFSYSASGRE", "assay": "Inhibition of AKT phosphorylation in human H23 cells harboring with p53 mutant under detachment conditions at 0.05 to 0.5 uM after 12 hrs by Western blot analysis", "assay_type": "cell-based"}, "NCI-H23 [14]": {"system": "NCI-H23", "assay": "Inhibition of epithelial-mesenchymal transition in human H23 cells harboring with p53 mutant under detachment conditions assessed as increase in E-cadherin protein level 0.05 to 0.5 uM after 12 hrs by Western blot analysis", "assay_type": "functional, cell-based"}, "NCI-H292 [15]": {"system": "NCI-H292", "assay": "Antiproliferative activity against human NCI-H292 cells assessed as reduction in cell viability at 0.05 to 0.5 uM", "assay_type": "functional, cell-based"}, "NCI-H23 [16]": {"system": "NCI-H23", "assay": "Inhibition of colony formation in human H23 cells under detachment conditions assessed as reduction in size of colonies at 0.1 to 0.5 uM after 14 days by microscopic method", "assay_type": "functional, cell-based"}, "NCI-H292 [17]": {"system": "NCI-H292", "assay": "Inhibition of colony formation in human NCI-H292 cells under detachment conditions assessed as reduction in size of colonies at 0.1 to 0.5 uM after 14 days by microscopic method", "assay_type": "functional, cell-based"}, "NCI-H460 [18]": {"system": "NCI-H460", "assay": "Induction of anoikis in human H460 cells […] under detachment conditions assessed as effect on P53 level at 0.05 to 0.5 uM after 12 hrs by Western blot analysis", "assay_type": "functional, cell-based"}, "NCI-H460 [19]": {"system": "NCI-H460", "assay": "Down regulation of caveolin-1 human H460 cells under detachment conditions at 0.05 to 0.5 uM after 12 hrs by Western blot analysis", "assay_type": "functional, cell-based"}, "NCI-H23 [20]": {"system": "NCI-H23", "assay": "Induction of apoptosis in human H23 cells under detachment conditions assessed as necrotic cells at 0.5 uM after 24 hrs by Annexin V-FITC/propidium iodide staining-based flow cytometric analysis (reference value: 0.41%)", "assay_type": "functional"}, "NCI-H460 [21]": {"system": "NCI-H460", "assay": "Inhibition of epithelial-mesenchymal transition in human H460 cells under detachment conditions assessed as increase in E-cadherin protein level 0.05 to 0.5 uM after 12 hrs by Western blot analysis", "assay_type": "functional, cell-based"}, "NCI-H460 [22]": {"system": "NCI-H460", "assay": "Induction of apoptosis in human H460 cells at 0.05 to 0.5 uM after 24 hrs by Hoechst 33342/propidium iodide staining based fluorescent microscopic method", "assay_type": "functional, cell-based"}, "NCI-H460 [23]": {"system": "NCI-H460", "assay": "Antiproliferative activity against human H460 cells assessed as reduction in cell viability at 0.1 to 0.5 uM after at 72 hrs by crystal violet staining assay", "assay_type": "functional, cell-based"}, "NCI-H460 [24]": {"system": "NCI-H460", "assay": "Induction of anoikis in human H460 cells under detachment conditions assessed as decrease in BCL-2 level at 0.1 to 0.5 uM after 12 hrs by Western blot analysis", "assay_type": "functional, cell-based"}, "NCI-H460 [25]": {"system": "NCI-H460", "assay": "Induction of apoptosis in human H460 cells at 1 uM after 24 hrs by Hoechst 33342/propidium iodide staining based fluorescent microscopic method", "assay_type": "functional, cell-based"}, "NCI-H460 [26]": {"system": "NCI-H460", "assay": "Induction of anoikis in human H460 cells under detachment conditions assessed as decrease in MCL-1 level at 0.05 to 0.5 uM after 12 hrs by Western blot analysis", "assay_type": "functional, cell-based"}, "NCI-H23 [27]": {"system": "NCI-H23", "assay": "Induction of anoikis in human H23 cells harboring with p53 mutant under detachment conditions assessed as decrease in BCL-2 level at 0.05 to 0.5 uM after 12 hrs by Western blot analysis", "assay_type": "functional, cell-based"}, "NCI-H460 [28]": {"system": "NCI-H460", "assay": "Induction of apoptosis in human H460 cells under detachment conditions assessed as necrotic cells at 0.5 uM after 24 hrs by Annexin V-FITC/propidium iodide staining-based flow cytometric analysis (reference value: 1.58%)", "assay_type": "functional"}, "NCI-H460 [29]": {"system": "NCI-H460", "assay": "Effect on total AKT protein level in human H460 cells under detachment conditions at 0.05 to 0.5 uM after 12 hrs by Western blot analysis", "assay_type": "ADME, cell-based", "conditions": "nci-h460, 12 h"}, "NCI-H23 [30]": {"system": "NCI-H23", "assay": "Antiproliferative activity against human H23 cells under detachment conditions assessed as reduction in cell viability at 0.05 to 0.5 uM up to 24 hrs by XTT assay", "assay_type": "functional, cell-based"}},
  "note": "The source made the active and inactive calls. The calls are words filed in the database; no cut-off is given here.",
  "data": [
    {"smiles": "COC1=C(C)C(=O)C2=C(C1=O)[C@@H]1[C@@H]3CC4=C(C(=O)C(OC)=C(C)C4=O)[C@H](CO)N3[C@@H](C#N)[C@H](C2)N1C", "note": "[JOURNNAMYCIN A]", "values": [
      {"measurement": "Activity", "setting": "NCI-H460 [1]", "result": "Active"},
      {"measurement": "fold change (FC)", "setting": "NCI-H460 [2]", "result": 2},
      {"measurement": "viability at 0.5 µM", "setting": "NCI-H292 [3]", "result": 25.8, "unit": "%"},
      {"measurement": "inhibition", "setting": "NCI-H23 [4]", "result": "Active"},
      {"measurement": "inhibition", "setting": "NCI-H23 [5]", "result": "Active"},
      {"measurement": "inhibition", "setting": "NCI-H23 [6]", "result": "Active"},
      {"measurement": "inhibition", "setting": "NCI-H460 [7]", "result": "Active"},
      {"measurement": "Activity", "setting": "NCI-H460 [8]", "result": "Active"},
      {"measurement": "Activity", "setting": "NCI-H460 [9]", "result": "Non-Toxic"},
      {"measurement": "Activity", "setting": "NCI-H23 [10]", "result": 37.79, "unit": "%"},
      {"measurement": "inhibition", "setting": "NCI-H460 [11]", "result": "Active"},
      {"measurement": "Activity", "setting": "NCI-H460 [12]", "result": "Active"},
      {"measurement": "inhibition", "setting": "[13]", "result": "Active"},
      {"measurement": "inhibition", "setting": "NCI-H23 [14]", "result": "Active"},
      {"measurement": "Activity", "setting": "NCI-H292 [15]", "result": "inactive"},
      {"measurement": "inhibition", "setting": "NCI-H23 [16]", "result": "Active"},
      {"measurement": "inhibition", "setting": "NCI-H292 [17]", "result": "Active"},
      {"measurement": "Activity", "setting": "NCI-H460 [18]", "result": "inactive"},
      {"measurement": "Activity", "setting": "NCI-H460 [19]", "result": "Active"},
      {"measurement": "Activity", "setting": "NCI-H23 [20]", "result": 0.49, "unit": "%"},
      {"measurement": "inhibition", "setting": "NCI-H460 [21]", "result": "Active"},
      {"measurement": "Activity", "setting": "NCI-H460 [22]", "result": "inactive"},
      {"measurement": "Activity", "setting": "NCI-H460 [23]", "result": "Active"},
      {"measurement": "Activity", "setting": "NCI-H460 [24]", "result": "Active"},
      {"measurement": "Activity", "setting": "NCI-H460 [25]", "result": "Active"},
      {"measurement": "Activity", "setting": "NCI-H460 [26]", "result": "Active"},
      {"measurement": "Activity", "setting": "NCI-H23 [27]", "result": "Active"},
      {"measurement": "Activity", "setting": "NCI-H460 [28]", "result": 24.2, "unit": "%"},
      {"measurement": "Activity", "setting": "NCI-H460 [29]", "result": "Non-Toxic"},
      {"measurement": "Activity", "setting": "NCI-H23 [30]", "result": "Active"}
    ]}
  ]
}
